Test results taken from patent publication US20160222014A1, “COMPOUNDS FOR REGULATING FAK AND/OR SRC PATHWAYS” (ASANA BIOSCIENCES, LLC, priority 2013, published 2016).
pIC50: −log10 of the molar value.

Columns and labels:
AURKB (Aurora B) enzyme = target: T1, AURKB (Aurora B) enzyme (Homo sapiens, UniProt Q96GD4); assay: Aurora B HTRF assay; assay type: biochemical; conditions: read-out: AuroraB IC50
T1 construct: purchased Invitrogen PVR 130
Method: AURKB (Aurora B) enzyme was obtained (Invitrogen, Cat No. PVR 130, Lot No. 857013J). A 8.64 μM stock was used at a final concentration 5 nM in the assay.
Lance@Ultera Ulight-PLK (Ser137) peptide substrate
Peptide substrate was obtained from Perkin Elmer (Lot#1629793, TRF0110-M). A 5 μM stock was used at a final concentration of 50 nM in the assay.
10 mM stock prepared freshly as above, used at a final concentration of 30 μM in assay.
The plate was covered with aluminum foil, put on a shaker and incubated 1 h at rt.
Reference: Pfizer aurora inhibitor PF-03814735 was procured from Selleckchem: Cat# S2725
Using stock Lance detection buffer, 1× Lance detection buffer was prepared. • 1. 10× lance detection buffer was diluted to 1×, mixed well and 100 μL was removed, and was used to substitute with antibody and EDTA (for a total of 2200 μL). • 2. 88 μL of […] EDTA was added from 500 mM stock. • 3. 14 μL Europium labeled antibody (LANCE@ Ultra EU-Anti-P-PLK(Ser 137), TRF0203-D, Lot No. 1630351, Perkin Elmer) was added from 625 nM stock; required concentration was 2 nM in the assay. • 4. The buffer well was mixed and 20 μL was transferred to the each well in the assay plate. • 5. The solutions were incubated for 1 h at rt. • 6. The plate was read using MET-HTRF® protocol using Pherastar equipment.

recombinant human FAK1 = target: T2, recombinant human FAK1 (Homo sapiens, UniProt Q05397); assay: FAK1 HTRF assay; assay type: biochemical
T2 construct: fused on or other part: N-terminal 6xHis tag
Method: Active FAK1 was prepared for use in the Homogeneous Time-Resolved Fluorescence (HTRF) assay. Briefly, N-terminal 6 His tagged recombinant human FAK1, from residue 692-end (GenBank accession no. L13616) was expressed by Bacculovirus in sf9 cells. […] A 1.6 mg/mL (45 μM) stock was used in the HTRF assay at a final concentration of 10 nM.
Gastrin precursor (tyr87) biotinylated peptide which contains the residues surrounding tyrosine 87 (EEAY*GWM) of gastrin precursor was obtained (Cell Signaling Tech, Item no. 1310, Lot 7). The peptide was provided at a stock concentration of 6 μM, and used a final concentration of 0.5 μM in the HTRF assay.
10 mM stock in 100 μL Enzyme assay buffer pH7.4 was prepared freshly and used at a final concentration of 10 μM in the assay.
Powders were dissolved in 100% DMSO to a final stock concentration of 10 mM. The volume needed (in μL) to add for 10 mM=mg powder is 10^5/MW of compound. The final compound concentration in the assay plate started at 10 μM.
Pfizer FAK inhibitor PF-562271 (N-methyl-N-(3-(((2-((2-oxoindolin-5-yl)amino)-5-(trifluoromethyl)pyrimidin-4-yl)amino)methyl)pyridin-2-yl)methanesulfonamide) was prepared as per the reported procedure from US Patent Publication No. 2005/256145A1.
Streptavidin-Allophycocyanin was obtained (Prozyme, Cat. No. PJ25S. SA-APC was provided at a stock concentration of 2.06 mg/mL, where APC concentration was 11.6 μM and the streptavidin concentration was 15.5 μM. SA-APC was used at a final concentration of 12 nM in the assay (based on streptavidin concentration).
This reagent was obtained from Perkin ElmerAD0068. Europium-W1024-PT-66 Anti Phospho Tyrosine Ab is a monoclonal IgG1 that recognizes phospho tyrosine peptide. 100 μg/mL stock was used at a final concentration of 0.1 nM in the assay.
• 1. The compound dilutions were made by TECAN liquid handler as per the scheme in FIG. 1. • 2. 16 μL of diluted compound was added to each well of the assay plate using TECAN liquid handler. • 3. 20 μL of substrate mix (biotinylated gastrin precursor) was added into each well of the assay plate manually. • 4. 10 μL of enzyme mix (FAK1) was added to each well except mins. • 5. The plate was incubated at rt for 45 min with shaking. • 6. The HTRF mix was prepared and 75 μL was added to the HTRF plate. • 7. After the incubation was over, 10 μL of the mixture was transferred to the HTRF assay plate and incubated for 45 min at rt with shaking. • 8. The readings were taken in Pherastar in HTRF mode (ext 337 nm, em 665 & 620 nm) • 9. The results were analyzed using Graphpad Prism® software after calculation the z factor signal window and % inhibition. • 10. The IC50 was calculated.

T2 sequence (Q05397 422-680 limits assumed): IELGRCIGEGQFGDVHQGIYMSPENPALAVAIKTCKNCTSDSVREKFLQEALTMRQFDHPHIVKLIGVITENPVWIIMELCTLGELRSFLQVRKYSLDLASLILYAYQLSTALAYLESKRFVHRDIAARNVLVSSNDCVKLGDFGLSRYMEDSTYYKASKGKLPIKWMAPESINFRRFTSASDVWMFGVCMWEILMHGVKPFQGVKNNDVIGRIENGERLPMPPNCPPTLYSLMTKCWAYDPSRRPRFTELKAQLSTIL
T1 sequence (Q96GD4 whole entry): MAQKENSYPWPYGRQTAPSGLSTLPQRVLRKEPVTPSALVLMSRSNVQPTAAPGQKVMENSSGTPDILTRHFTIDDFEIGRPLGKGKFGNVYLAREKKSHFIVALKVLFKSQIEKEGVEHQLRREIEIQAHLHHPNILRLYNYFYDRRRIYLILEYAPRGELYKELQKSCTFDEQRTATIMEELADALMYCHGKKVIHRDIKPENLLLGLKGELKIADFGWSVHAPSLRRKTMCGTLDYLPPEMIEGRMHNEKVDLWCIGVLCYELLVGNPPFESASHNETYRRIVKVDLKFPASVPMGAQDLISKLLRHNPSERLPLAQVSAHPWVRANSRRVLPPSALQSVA

pIC50 (AURKB (Aurora B) enzyme) | pIC50 (recombinant human FAK1) | SMILES
< 6.00 | – | Cc1nn(Cc2cccnc2N(C)S(C)(=O)=O)c2cc(Nc3ccc4c(c3)CCC(=O)N4)ncc12 [Example 69]
< 6.00 | – | CC(=O)Nc1ccc(Nc2cc3c(cn2)cnn3Cc2ccccc2OC(F)F)nc1 [Example 73]
< 6.00 | – | CC(=O)Nc1ccc(Nc2cc3c(cn2)cnn3Cc2ccccc2OC(F)F)cc1 [Example 75]
> 7.70 | > 7.70 | N#Cc1ccccc1S(=O)(=O)n1ccc2cnc(Nc3ccc4c(c3)CCC(=O)N4)nc21 [Example 115]
> 7.70 | > 7.70 | CN(C)c1cccc(Nc2ncc3ccn(Cc4cccnc4N(C)S(C)(=O)=O)c3n2)c1 [Example 139]
> 7.70 | – | Nc1ccccc1S(=O)(=O)n1ccc2cnc(Nc3ccc4c(c3)CCC(=O)N4)nc21 [Example 164]
> 7.70 | – | CN(c1ncccc1Cn1ccc2cnc(Nc3cccc(CO)c3)nc21)S(C)(=O)=O [Example 166]
> 7.70 | – | CN(C)CCOc1cccc(Nc2ncc3ccn(S(=O)(=O)c4ccccc4C#N)c3n2)c1 [Example 173]
> 7.70 | – | CN(c1ncccc1Cn1ccc2cnc(Nc3ccc4nn[nH]c4c3)nc21)S(C)(=O)=O [Example 189]
> 7.70 | – | CN(C)S(=O)(=O)c1ccccc1Cn1ccc2cnc(Nc3ccc(N4CCNCC4)cc3)nc21 [Example 200]
> 7.70 | > 7.70 | CN(c1ncccc1Cn1ccc2cnc(Nc3ccc4c(c3)C(C)(C)CC(=O)N4)nc21)S(C)(=O)=O [Example 211]
> 7.70 | > 7.70 | CN(c1ncccc1Cn1ccc2cnc(Nc3ccc4c(c3)OCC(=O)N4)nc21)S(C)(=O)=O [Example 218]
> 7.70 | > 7.70 | C[C@H]1CN(c2ccc(Nc3ncc4ccn(S(=O)(=O)c5cccc6cccnc56)c4n3)cc2)CCN1 [Example 230]
> 7.70 | > 7.70 | O=S(=O)(c1cccc2cccnc12)n1ncc2cnc(Nc3ccc(N4CCNCC4)cc3)nc21 [Example 231, N-(4-(piperazin-1-yl)phenyl)-1-(quinolin-8-ylsulfonyl)-1H-pyrazolo[3,4-d]pyrimidin-6-amine]
> 7.70 | > 7.70 | O=S(=O)(c1cccc2cccnc12)n1ccc2cnc(Nc3ccc(N4CCNCC4)cc3)cc21 [Example 321]
> 7.70 | > 7.70 | O=S(=O)(c1cccc2cccnc12)n1ccc2cnc(Nc3ccc(N4CCNCC4)c(F)c3)cc21 [Example 323]
> 7.70 | > 7.70 | C[C@H]1CNCCN1c1ccc(Nc2ncc3ccn(S(=O)(=O)c4cccc5cccnc45)c3n2)cc1 [Example 326]
> 7.70 | > 7.70 | O=S(=O)(c1cccc2cccnc12)n1ccc2cnc(Nc3ccc(N4CCN(CCO)CC4)cc3)cc21 [Example 340]
> 7.70 | > 7.70 | O=S(=O)(c1cccc2cccnc12)n1ccc2cnc(Nc3ccc(N4CCC(O)CC4)cc3)cc21 [Example 346]
> 7.70 | > 7.70 | CN1CCN(c2ccc(Nc3cc4c(ccn4S(=O)(=O)c4cccc5cccnc45)cn3)cc2)CC1 [Example 353]
> 7.70 | – | Cc1ccc2cccc(S(=O)(=O)n3ccc4cnc(Nc5ccc(N6CCNCC6)cc5)nc43)c2n1 [Example 367]
> 7.70 | – | c1cnc2c(Cn3ccc4cnc(Nc5ccc(N6CCNCC6)cc5)nc43)cccc2c1 [Example 378]
> 7.70 | > 7.70 | O=S(=O)(c1cccc2cccnc12)n1ccc2cnc(Nc3ccc4ncsc4c3)nc21 [Example 381]
> 7.70 | > 7.70 | O=S(=O)(c1cccc2cccnc12)n1ccc2cnc(Nc3ccc(N4CCOCC4)cc3)nc21 [Example 389]

pIC50 (AURKB (Aurora B) enzyme) | pIC50 (recombinant human FAK1) | SMILES
> 7.70 | > 7.70 | Cc1cc(Nc2cc3c(ccn3S(=O)(=O)c3ccccc3C#N)cn2)ccc1N1CCNCC1 [Example 390]
> 7.70 | > 7.70 | O=c1[nH]c2ccc(Nc3ncc4ccn(S(=O)(=O)c5cccc6cccnc56)c4n3)cc2[nH]1 [Example 395]
< 6.00 | – | CN(c1ncccc1CN1C(=O)Cc2cnc(Nc3ccc(N4CCC(O)CC4)cc3)nc21)S(C)(=O)=O [Example 404]
> 7.70 | – | CN(c1ccccc1Cn1ccc2cnc(Nc3ccc(N4CCC(N)CC4)cc3)nc21)S(C)(=O)=O [Example 463]
< 6.00 | – | C[C@@H]1CN(c2ccc(Nc3ncc4c(n3)N(S(=O)(=O)c3ccccc3C#N)CC4(C)C)cc2)CCN1 [Example 466]
> 7.70 | – | C[C@@H]1CNCCN1c1ccc(Nc2ncc3ccn(Cc4ccccc4N(C)S(C)(=O)=O)c3n2)cc1 [Example 482]
> 7.70 | – | C[C@H]1CN(c2ccc(Nc3ncc4ccn(Cc5cccnc5N(C)S(C)(=O)=O)c4n3)cc2)CCN1C [Example 487]
> 7.70 | – | C[C@@H]1CN(C)CCN1c1ccc(Nc2ncc3ccn(Cc4ccccc4N(C)S(C)(=O)=O)c3n2)cc1 [Example 488]
< 6.00 | – | CN1CCN(c2ccc(Nc3ncc4c(n3)N(S(=O)(=O)c3cccc5cccnc35)CC4(C)C)cc2)CC1 [Example 498]
< 6.00 | – | CC1(C)CN(S(=O)(=O)c2cccc3cccnc23)c2nc(Nc3ccc(N4CCNCC4)c(F)c3)ncc21 [Example 524]
> 7.70 | – | N#Cc1ccccc1S(=O)(=O)n1ccc2cnc(Nc3ccc4c(c3)CC3CNCCN43)cc21 (stereo not shown) [Example 551]
> 7.70 | – | CN(c1ccccc1Cn1ccc2cnc(Nc3ccc(N4CCNC(C)(C)C4=O)cc3)nc21)S(C)(=O)=O [Example 552]
< 6.00 | – | C[C@H]1CN(c2ccc(Nc3ncc4c(n3)N(S(=O)(=O)c3cccc5cccnc35)CC4(C)C)cc2F)CCN1 [Example 554]
> 7.70 | – | C[C@H]1CN(c2ccc(Nc3ncc4ccn(Cc5ccccc5N(C)S(C)(=O)=O)c4n3)cc2F)CCN1 [Example 557]
< 6.00 | – | C[C@H]1CNCCN1c1ccc(Nc2ncc3c(n2)N(S(=O)(=O)c2cccc4cccnc24)CC3(C)C)cc1 [Example 564]
> 7.70 | – | CN(C)C1CCCN(c2ccc(Nc3ncc4ccn(Cc5ccccc5N(C)S(C)(=O)=O)c4n3)cc2)C1 (stereo not shown) [Example 598]
> 7.70 | – | CN(c1ccccc1Cn1ccc2cnc(Nc3ccc(N4CCNC(CO)C4)cc3)nc21)S(C)(=O)=O (stereo not shown) [Example 602]
> 7.70 | – | CN(C)C1CN(c2ccc(Nc3ncc4ccn(Cc5ccccc5N(C)S(C)(=O)=O)c4n3)cc2F)C1 [Example 608]
> 7.70 | – | CN(c1ccccc1Cn1ccc2cnc(Nc3ccc(C4CNCCN4)cc3)nc21)S(C)(=O)=O (stereo not shown) [Example 610]
> 7.70 | – | N#Cc1ccccc1S(=O)(=O)n1ccc2cnc(Nc3ccc(C4CNCCN4)cc3)cc21 (stereo not shown) [Example 614]
> 7.70 | – | C[C@H](O)CN1CCN(c2ccc(Nc3cc4c(ccn4S(=O)(=O)c4ccccc4C#N)cn3)cc2)CC1 [Example 631]
< 6.00 | – | Cc1cc(Nc2ncc3c(n2)N(S(=O)(=O)c2cccc4cccnc24)CC3(C)C)ccc1N1CCC(N(C)C)CC1 [Example 648]
> 7.70 | – | C[C@H](O)CN1CCN(c2ccc(Nc3ncc4ccn(Cc5ccccc5N(C)S(C)(=O)=O)c4n3)cc2)C[C@H]1C [Example 692]

SMILES | pIC50 (AURKB (Aurora B) enzyme) | pIC50 (recombinant human FAK1)
CC1(C)CN(S(=O)(=O)c2ccccc2C#N)c2nc(Nc3ccc(N4CCNCC4)cc3)ncc21 [Example 461] | < 6.00 | –
